Assay results published in paper PMC9468151, “Identification of a binding site on soluble RANKL that can be targeted to inhibit soluble RANK-RANKL interactions and treat osteoporosis” (Nature Communications, 2022).
Several values for one entry are separate records, joined by “and”; a condition that tells them apart may be missing. Equal values may be shown once. Entries after “also recorded” stand apart in the source; their conditions may differ.

How the values were obtained:
T lymphocyte = T lymphocyte cell proliferation assay (CFSE, CD4+/CD8+ flow cytometry); type: cell-based, human
Experimental: T lymphocyte cell proliferation assay was performed according to a reported method[58] with some modification. Briefly, 5 × 10^6 cells /mL cells were stained 2.5 μM CFSE (Tonbo Biosciences) and incubated at 37 °C for 12 min. Then washed and discarded the supernatant and adjusted the CFSE stained cell to 1.75 × 10^6 cells /mL. Cells were diluted in 1640 completed medium containing 5 μg/mL anti-CD3 antibody (Tonbo Biosciences) to 3 × 10^5 cells/mL and seed in a 96-well plate or 24-well plate that pre-packaged 0.4 μg/well anti-CD28 antibody and 1.6 μg anti-CD28 antibody (24-well) (Tonbo Biosciences). Cells were then cultured for 3 days, 9 days or 12 days. Subsequently, the proportion of CD4^+ and CD8^+ cells was determined by flow cytometry (Beckman Coulter, FC500) according to manufacturer’s instruction of PE-Cyanine7 anti-Human CD8a and PE anti-Human CD4 antibodies (Tonbo Biosciences). Data analyzing was performed by using CXP software (Beckman Coulter, Supplementary Fig. 8).

[1] = test system: sRANKL induced osteoclast differentiation; assay: In vitro anti-osteoclastogenesis activity determination (TRAP staining); type: cell-based, mouse; details: BMMs, M-CSF + 100 ng/mL sRANKL, 5 days, TRAP staining
Experimental: Mouse osteoclasts were cultured according to the previously reported protocols. BMMs were plated in 96-well plates at a density of 6 × 10^3 cells/well with complete medium containing 10 ng/mL M-CSF. The following day, cells were then stimulated with 100 ng/mL sRANKL in the presence or absence of compounds with different concentrations every 2 days until osteoclasts formed. In order to calculate IC50, we set 9 concentrations for each compound and untreated and non-sRANKL unstimulating group as controls, each with triplicated repeated wells. After 5 days, cells were fixed with 4% paraformaldehyde and then applied TRAP-staining to identify osteoclasts by using the TRAP-staining kit. Osteoclasts number (OC No.) in each well was counted and the percentage of inhibition ratio was calculated as follows:1 OCinhibitoryratio%=100−OCNo.treated−OCNo.unstimulating/OCNo.untreated−OCNo.unstimulating×100%
The dosages and their correspondent osteoclastogenesis inhibitory activity curve and IC50 value were conducted by using Nonlinear regression (curve fit) analytic procedure in GraphPad Prism 8. Photographs of individual wells were taken using Leica microscope.

[2] = Cancer donor 1, 3 day, Denosumab 2
[3] = Cancer donor 1, 3 day, Denosumab 10
[4] = Cancer donor 1, 3 day, Denosumab 50
[5] = Cancer donor 1, 3 day, Denosumab 100
[6] = Healthy donor 1, 3 day, Denosumab 2
[7] = Healthy donor 1, 3 day, Denosumab 10
[8] = Healthy donor 1, 3 day, Denosumab 50
[9] = Healthy donor 1, 3 day, Denosumab 100
[10] = Healthy donor 1, 12 day, Denosumab 2
[11] = Healthy donor 1, 12 day, Denosumab 10
[12] = Healthy donor 1, 12 day, Denosumab 50
[13] = Healthy donor 1, 12 day, Denosumab 100
[14] = Healthy donor 2, 9 day, Denosumab 2
[15] = Healthy donor 2, 9 day, Denosumab 10
[16] = Healthy donor 2, 9 day, Denosumab 50
[17] = Healthy donor 2, 9 day, Denosumab 100
[18] = cancer patient donors 1, 3 day, Denosumab conc. 2
[19] = cancer patient donors 1, 3 day, Denosumab conc. 10
[20] = cancer patient donors 1, 3 day, Denosumab conc. 50
[21] = cancer patient donors 1, 3 day, Denosumab conc. 100
[22] = healthy donors 2, 9 day, Denosumab conc. 2
[23] = healthy donors 2, 9 day, Denosumab conc. 10
[24] = healthy donors 2, 9 day, Denosumab conc. 50
[25] = healthy donors 2, 9 day, Denosumab conc. 100

Denosumab: human monoclonal antibody targeting RANKL [reference compound]
CD8+ cells in total cells (%) (T lymphocyte; [2]): 12.95% and 18.88% and 19.88% | CD8+cells in CFSE-cells (%) (T lymphocyte; [2]): 47.83% and 52.36% and 55.86% | CFSE- cells in total cells (%) (T lymphocyte; [2]): 7.68% and 12.7% and 13.49% | CD8+ cells in total cells (%) (T lymphocyte; [3]): 19.52% and 20.76% and 18.73% and 17.85% | CD8+cells in CFSE-cells (%) (T lymphocyte; [3]): 58.3% and 60.56% and 50.89% and 60.05% | CFSE- cells in total cells (%) (T lymphocyte; [3]): 14.67% and 15.58% and 13.42% and 13.19% | CD8+ cells in total cells (%) (T lymphocyte; [4]): 26.97% and 21.55% and 18.02% and 16.53% | CD8+cells in CFSE-cells (%) (T lymphocyte; [4]): 60.83% and 60.63% and 65.78% and 55.26% | CFSE- cells in total cells (%) (T lymphocyte; [4]): 18.07% and 17.65% and 14.37% and 12.07% | CD8+ cells in total cells (%) (T lymphocyte; [5]): 18.07% and 12.62% and 9.75% and 19.7% | CD8+cells in CFSE-cells (%) (T lymphocyte; [5]): 58.14% and 64.44% and 57.46% and 66.87% | CFSE- cells in total cells (%) (T lymphocyte; [5]): 13.67% and 8.82% and 5.94% and 14.04% | CD4+cells in total cells (%) (T lymphocyte; [6]): 69.69% and 70.06% and 70.95% and 70.86% | CD8+ cells in total cells (%) (T lymphocyte; [6]): 18.8% and 18.88% and 18.25% and 19.29% | CD8+cells in CFSE-cells (%) (T lymphocyte; [6]): 26.34% and 25.38% and 32.57% and 36.89% | CFSE- cells in total cells (%) (T lymphocyte; [6]): 26.84% and 28.54% and 29.29% and 24.77% | CD4+cells in total cells (%) (T lymphocyte; [7]): 65.55% and 67.08% and 69.8% and 70.72% | CD8+ cells in total cells (%) (T lymphocyte; [7]): 12.83% and 18.37% and 19.41% and 19.55% | CD8+cells in CFSE-cells (%) (T lymphocyte; [7]): 30.74% and 26.84% and 36.74% and 30.32% | CFSE- cells in total cells (%) (T lymphocyte; [7]): 20.59% and 18.28% and 26.59% and 31.48% | CD4+cells in total cells (%) (T lymphocyte; [8]): 67.05% and 68.05% and 69.94% | CD8+ cells in total cells (%) (T lymphocyte; [8]): 11.73% and 19.23% and 18.46% and 17.76% | CD8+cells in CFSE-cells (%) (T lymphocyte; [8]): 24.41% and 28.83% and 32.28% and 24% | CFSE- cells in total cells (%) (T lymphocyte; [8]): 15.36% and 19.21% and 18.01% and 22.17% | CD4+cells in total cells (%) (T lymphocyte; [9]): 70.71% and 71.03% and 67.42% and 69.45% | CD8+ cells in total cells (%) (T lymphocyte; [9]): 18.51% and 19.03% and 18% | CD8+cells in CFSE-cells (%) (T lymphocyte; [9]): 34.99% and 31.86% and 30.15% and 27.25% | CFSE- cells in total cells (%) (T lymphocyte; [9]): 23.52% and 25.01% and 20.72% and 24.32% | CD4+cells in total cells (%) (T lymphocyte; [10]): 26.49% and 25.92% and 26.52% and 28.25% | CD8+ cells in total cells (%) (T lymphocyte; [10]): 16.3% and 19.12% and 15.44% and 15.28% | CD8+cells in CFSE-cells (%) (T lymphocyte; [10]): 73.19% and 72% and 71.55% and 68.56% | CFSE- cells in total cells (%) (T lymphocyte; [10]): 14.97% and 17.18% and 14.07% and 13.53% | CD4+cells in total cells (%) (T lymphocyte; [11]): 25.95% and 25.52% and 26.76% and 24.64% | CD8+ cells in total cells (%) (T lymphocyte; [11]): 15.64% and 17.84% and 16.84% and 18.91% | CD8+cells in CFSE-cells (%) (T lymphocyte; [11]): 74.4% and 67.54% and 67.82% and 72.96% | CFSE- cells in total cells (%) (T lymphocyte; [11]): 15.13% and 15.31% and 14.05% and 17.18% | CD4+cells in total cells (%) (T lymphocyte; [12]): 24.55% and 27.22% and 26.53% and 28.64% | CD8+ cells in total cells (%) (T lymphocyte; [12]): 20.42% and 18.55% and 17.94% and 15.51% | CD8+cells in CFSE-cells (%) (T lymphocyte; [12]): 76.93% and 74.3% and 73% and 74.26% | CFSE- cells in total cells (%) (T lymphocyte; [12]): 19.56% and 16.94% and 16.16% and 14.84% | CD4+cells in total cells (%) (T lymphocyte; [13]): 25.87% and 24.55% and 27.13% and 25.36% | CD8+ cells in total cells (%) (T lymphocyte; [13]): 17.35% and 16.6% and 14.41% and 19% | CD8+cells in CFSE-cells (%) (T lymphocyte; [13]): 75.89% and 76.07% and 78.18% and 58.5% | CFSE- cells in total cells (%) (T lymphocyte; [13]): 16.6% and 18.55% and 14.85% and 14.03% | CD8+ cells in total cells (%) (T lymphocyte; [14]): 62.1% and 50.03% and 44.09% | CD8+cells in CFSE-cells (%) (T lymphocyte; [14]): 46.7% and 62.97% and 61.41% | CFSE- cells in total cells (%) (T lymphocyte; [14]): 29.5% and 51.59% and 42.27% | CD8+cells in CFSE-cells (%) (T lymphocyte; [15]): 52.77% and 43.74% and 55.57% | CFSE- cells in total cells (%) (T lymphocyte; [15]): 41.17% and 28.01% and 37.92% | CD8+ cells in total cells (%) (T lymphocyte; [16]): 20.69% and 38.29% and 38.09% | CD8+cells in CFSE-cells (%) (T lymphocyte; [16]): 53.31% and 54.69% and 48.69% | CFSE- cells in total cells (%) (T lymphocyte; [16]): 29.61% and 31.67% and 28.7% | CD8+ cells in total cells (%) (T lymphocyte; [17]): 58.4% and 50.02% and 56.13% | CD8+cells in CFSE-cells (%) (T lymphocyte; [17]): 75.13% and 70.69% and 68.35% | CFSE- cells in total cells (%) (T lymphocyte; [17]): 59.44% and 46.67% and 44.15% | CD4+cells in total cells (%) (T lymphocyte; [18]): 2.77% and 5.83% and 5.1% | CFSE-CD4+cells in CFSE-cells (%) (T lymphocyte; [18]): 6.78% and 7.64% and 7.28% | CD4+cells in total cells (%) (T lymphocyte; [19]): 4.94% and 4.86% and 1.84% and 3.11% | CFSE-CD4+cells in CFSE-cells (%) (T lymphocyte; [19]): 6.34% and 3.24% and 8% and 8.92% | CD4+cells in total cells (%) (T lymphocyte; [20]): 1.87% and 6.24% and 6.17% and 6.5% | CFSE-CD4+cells in CFSE-cells (%) (T lymphocyte; [20]): 4% and 0.79% and 1.56% and 4.58% | CD4+cells in total cells (%) (T lymphocyte; [21]): 9.55% and 7.15% and 9.97% and 6.77% | CFSE-CD4+cells in CFSE-cells (%) (T lymphocyte; [21]): 4% and 0% and 0.9% | CD4+CFSE− cell after treatment (T lymphocyte; cancer patient, Fig. 7c, control 5.32 ± 0.76%): 1.33 ± 2.31% | total T cells isolated from cancer patient after treatment (T lymphocyte; cancer patient, Fig. 7c, control 14.51 ± 3.71%): 3.88 ± 1.77% | CD4+cells in total cells (%) (T lymphocyte; healthy donors 1, 3 day, Denosumab conc. 2): 72.37% and 73.3% and 66.26% and 61.44% | CD4+cells in total cells (%) (T lymphocyte; healthy donors 1, 3 day, Denosumab conc. 10): 65.16% and 71.53% and 62.16% and 68.6% | CD4+cells in total cells (%) (T lymphocyte; healthy donors 1, 3 day, Denosumab conc. 50): 73.23% and 69.38% and 66.17% and 74.19% | CD4+cells in total cells (%) (T lymphocyte; healthy donors 1, 3 day, Denosumab conc. 100): 64% and 66.67% and 68.46% and 71.67% | CFSE-CD4+cells in CFSE-cells (%) (T lymphocyte; healthy donors 1, 12 day, Denosumab conc. 2): 9.68% and 10.89% and 9.04% and 9.57% | CFSE-CD4+cells in CFSE-cells (%) (T lymphocyte; healthy donors 1, 12 day, Denosumab conc. 10): 10.52% and 10.85% and 8.44% and 10.78% | CFSE-CD4+cells in CFSE-cells (%) (T lymphocyte; healthy donors 1, 12 day, Denosumab conc. 50): 8.71% and 10.48% and 9.97% and 9.81% | CFSE-CD4+cells in CFSE-cells (%) (T lymphocyte; healthy donors 1, 12 day, Denosumab conc. 100): 9.75% and 11.53% and 10.58% | CD4+cells in total cells (%) (T lymphocyte; [22]): 17% and 17.01% and 14.7% | CFSE-CD4+cells in CFSE-cells (%) (T lymphocyte; [22]): 42.1% and 26.91% and 24.13% | CD4+cells in total cells (%) (T lymphocyte; [23]): 13.52% and 17.3% and 15.5% | CFSE-CD4+cells in CFSE-cells (%) (T lymphocyte; [23]): 24.29% and 47.85% and 28.82% | CD4+cells in total cells (%) (T lymphocyte; [24]): 12.4% and 14.63% and 15.19% | CFSE-CD4+cells in CFSE-cells (%) (T lymphocyte; [24]): 19.21% and 28.79% and 29.22% | CD4+cells in total cells (%) (T lymphocyte; [25]): 14.9% and 10.87% and 12.57% | CFSE-CD4+cells in CFSE-cells (%) (T lymphocyte; [25]): 20.36% and 16.35% and 22.15% | total CD4+ and CD4+CFSE− T cell (T lymphocyte; human 2, 9 days, 100 μg/mL): dropped by nearly half | lymphocyte proliferation (T lymphocyte; human lymphocytes, in words): notably inhibits lymphocyte proliferation at high concentration

CCOC(=O)c1sc(NC(=O)C(=NNc2cc(C(=O)O)ccc2C(=O)O)C(C)=O)nc1C [S3-04]
OC IC50 (anti-osteoclastogenesis activity) [1]: Inactive; also recorded: lose osetoclastogenesis inhibitory activities
